The target of the assay is 20S proteasome. Briefly: Compound was evaluated for inhibitory activity against 20S proteasome from human liver and brain. It is filed as subcellular.

Where a SMILES comes first, the peptide text is derived from it. The star is where a group is joined. MeOSuc = COC(=O)CCC(=O)*

`CC(C)CC(C=O)NC(=O)C(CCC/N=C(\N)N[N+](=O)[O-])NC(=O)C(CCCCCCCCC#N)C1CCCC1` (configuration not stated) came in with an IC50 of 6 nM. Turning to `COC(=O)CCCCCCCC(=O)NC(CCC/N=C(\N)N[N+](=O)[O-])C(=O)NC(C=O)CC(C)C` (configuration not stated), the 50% inhibitory concentration (IC50) worked out at 40 nM. In turn, `COC(=O)CCCCCCCC(=O)NC(CCC/N=C(\N)NS(=O)(=O)c1c(C)c(C)c2c(c1C)CCC(C)(C)O2)C(=O)NC(C=O)CC(C)C` (single isomer, unassigned) displayed an IC50 of 20 nM. `COC(=O)CCCCCCCC(=O)N[C@H](CCC/N=C(\N)NS(=O)(=O)c1c(C)c(C)c2c(c1C)CCC(C)(C)O2)C(=O)NC(C=O)CC(C)C` (some centres not stated) registered an IC50 of over 3000 nM. Take `COC(=O)CCC(=O)N[C@@H](CCC(=O)O)C(=O)N[C@H](C(=O)N[C@@H](CCCCN)C(=O)N[C@@H](Cc1ccccc1)C(=O)O)C(C)C` (MeOSuc-EVKF-OH): the IC50 came to 1000 nM. Molecule `CC(C)CC(C=O)NC(=O)C(CCC/N=C(\N)N[N+](=O)[O-])NC(=O)C(CCCCCCCCN1C(=O)c2ccccc2C1=O)C1CCCC1` (configuration not stated) returned a half-maximal inhibitory concentration (IC50) of 2 nM. On to `COC(=O)CCCCCCCC(=O)NC(CCC/N=C(\N)NS(=O)(=O)c1c(C)cc(OC)c(C)c1C)C(=O)NC(C=O)CC(C)C` (configuration not stated), for which 95 nM corresponded to half-maximal inhibition (IC50).

As a reminder, the IC50 is the concentration that gives 50% inhibition. A lower IC50 goes with greater potency.
